Like-named read-outs stand apart in the source and are kept apart here.
Assays:
[1] = tested on: PC3 tumor xenografts; assay: Tumor growth in mice with PC3 tumor xenografts; type: in vivo, ICR-NOD/SCID mice; conditions: DTX 20 mg/kg once a week i.v., n = 3
Protocol: (§1) The following experimental protocol was adopted after approval by the Animal Research Ethics Committee at the Chinese University of Hong Kong. PC3 and PC3-TxR cells were cultured in RPMI 1640 medium containing 10% FBS and 1% penicillin-streptomycin in a humidified atmosphere of 5% CO2 at 37°C. PC3 and PC3-TxR cell pellets were re-suspended in serum free RPMI1640 and diluted by Matrigel™ Basement Membrane Matrix (BD Biosciences, Bedford, MA, USA) to the density of 3.33 × 10^6cells/ml. Male ICR-NOD/SCID mice (Laboratory Animal Services Center at the Chinese University of Hong Kong) weighing 25 to 30 g (age 6–8 weeks) was anesthetized with an intraperitoneal injection of a cocktail containing 87 mg/kg ketamine and 8.7 mg/kg xylazine (diluted with saline and the injection volume was about 0.1 ml). The cell suspension was injected subcutaneously to both the left and right flank region. The tumors were allowed to grow for about 2 weeks. Tumor volumes were measured twice per week (tumor volume = [(W^2 × L)/2], where W is the tumor measurement at the widest point, and L is the tumor dimension at the longest point). When the tumors reach about 100 mm^3, treatment was started and the date was designated as Day 0.

[2] = tested on: PC3-TxR tumor xenografts; assay: Tumor growth in mice with PC3-TxR (taxane-resistant) tumor xenografts; type: in vivo, ICR-NOD/SCID mice; conditions: DTX 20 mg/kg once a week i.v.
Protocol: as §1

[3] = Body weight and tolerability in mice with TxR tumor xenografts; conditions: TxR tumor xenograft mice; two weeks of treatment; control 96%
Protocol: For oral administration of PIP, in 1 ml of PIP dosing solution, 100 µl of its stock solution was solubilized with 500 µl of PEG 400 and 400 µl of physiological saline and the mixture was administrated orally to mice at the dose of 0.1 ml/10 g body weight. […] On Day 0, mice with PC3 cell xenografts were divided into two groups and mice with PC3-TxR cell xenografts were divided into four groups. Mice in each group were treated according to Supplementary Table 3 and the drug dosing lasted for 2 weeks with body weight and tumor sized measured twice per week. […] At the end of experiment, the mice were anesthetized followed by haemospasia to death by cardiac puncture.

[4] = DTX concentration in plasma and tissues of TxR tumor bearing mice (LC/MS/MS); type: in vivo, ICR-NOD/SCID mice; conditions: for concentration at 2 h: ICR-NOD/SCID, mouse, iv, 20 mg/kg
Protocol: On Day 14, mice were sacrificed two hours post drug administration. Blood samples were collected by cardiac puncture followed by centrifugation at 5000 rpm for 3 min for obtaining the plasma. Brain, lung, liver, kidney and tumor were collected and weighed. About 100 mg of each tissue samples were carefully weighed and homogenized after being spiked with 300 µl of formic acid (0.2%, v/v). About 50 µl of plasma or tissue homogenates were spiked with 5 µl of 50% acetonitrile in water and 150 µl of mixture of acetonitrile and methanol (50:50, v/v) containing glibenclamide at 50 ng/ml as internal standard. After centrifugation at 13000 rpm for 10 min, the supernatants were injected into LC/MS/MS system which consisted of an Agilent 6430 triple quadrupole mass spectrometer equipped with an electrospray ionization source (ESI), two Agilent 1290 series pumps and autosampler (Agilent Technologies, Inc., CA, USA). The analytes were separated using a Waters Nova-Pak^ÒC18 column (150 mm×3.9 mm, i.d., 4 µm particle size) protected by a collared frit (4/4.6 mm i.d., 0.5 µm pore size, Thermo Scientific full name, city, state, country). The mobile phase consisted of 0.2% formic acid and acetonitrile (50:50, v/v) with a flow rate at 0.4 ml/min.

[5] = tested on: PC3-TxR cells; assay: Cell viability (cytotoxicity) of PC3-TxR cells; type: cell-based; conditions: Homo sapiens
Description: www.impactjournals.com/oncotarget/ Oncotarget, Supplementary Materials 2017
investigation using a taxane-resistant prostate cancer model
Supplementary Figure 1: Cell viability (measured from triplicate samples) of PC3-TxR cells. (A) The cytotoxicity of PIP
(1 picture or pasted object on this page, not shown here)

[6] = target: P-gp (Homo sapiens, UniProt P08183); assay: Uptake of DTX in MDCK/MDR1 cells with or without PIP pre-incubation; type: cell-based; design: expressed in transfected cells; host or cells: MDCK (MDCK/MDR1), gift from Prof; P. Borst
Protocol: MDCK cells transfected with human gene (MDCK/MDR1) were cultured in Dulbecco’s modified Eagle’s medium supplemented with 10% FBS and 1% penicillin-streptomycin. Cells were subcultured when the confluence reached 80% by trypsinization with 0.25% of trypsin-EDTA. MDCK/MDR1 cells were seeded at a density of 2 × 10^5 cells/well to 24-well and incubated for 24 h. […] After washing twice with ice-cold HBSS, cells were collected in 100 µl of formic acid (0.2%, v/v) using a scraper. BCA Protein Quantification Kit (Abcamplc., Cambridge, UK) was used to quantify the protein content. Cell lysate was treated by 300 µl of mixture of acetonitrile and methanol (50:50, v/v) containing glibenclamide at 50 ng/ml, followed by sonication for 15 min.

[7] = ketoconazole 200 mg once daily for three days; cancer patients; cited from earlier work
[8] = Day 14, two hours after i.v. bolus DTX, TxR mice

Sequence of P-gp (P08183 whole entry): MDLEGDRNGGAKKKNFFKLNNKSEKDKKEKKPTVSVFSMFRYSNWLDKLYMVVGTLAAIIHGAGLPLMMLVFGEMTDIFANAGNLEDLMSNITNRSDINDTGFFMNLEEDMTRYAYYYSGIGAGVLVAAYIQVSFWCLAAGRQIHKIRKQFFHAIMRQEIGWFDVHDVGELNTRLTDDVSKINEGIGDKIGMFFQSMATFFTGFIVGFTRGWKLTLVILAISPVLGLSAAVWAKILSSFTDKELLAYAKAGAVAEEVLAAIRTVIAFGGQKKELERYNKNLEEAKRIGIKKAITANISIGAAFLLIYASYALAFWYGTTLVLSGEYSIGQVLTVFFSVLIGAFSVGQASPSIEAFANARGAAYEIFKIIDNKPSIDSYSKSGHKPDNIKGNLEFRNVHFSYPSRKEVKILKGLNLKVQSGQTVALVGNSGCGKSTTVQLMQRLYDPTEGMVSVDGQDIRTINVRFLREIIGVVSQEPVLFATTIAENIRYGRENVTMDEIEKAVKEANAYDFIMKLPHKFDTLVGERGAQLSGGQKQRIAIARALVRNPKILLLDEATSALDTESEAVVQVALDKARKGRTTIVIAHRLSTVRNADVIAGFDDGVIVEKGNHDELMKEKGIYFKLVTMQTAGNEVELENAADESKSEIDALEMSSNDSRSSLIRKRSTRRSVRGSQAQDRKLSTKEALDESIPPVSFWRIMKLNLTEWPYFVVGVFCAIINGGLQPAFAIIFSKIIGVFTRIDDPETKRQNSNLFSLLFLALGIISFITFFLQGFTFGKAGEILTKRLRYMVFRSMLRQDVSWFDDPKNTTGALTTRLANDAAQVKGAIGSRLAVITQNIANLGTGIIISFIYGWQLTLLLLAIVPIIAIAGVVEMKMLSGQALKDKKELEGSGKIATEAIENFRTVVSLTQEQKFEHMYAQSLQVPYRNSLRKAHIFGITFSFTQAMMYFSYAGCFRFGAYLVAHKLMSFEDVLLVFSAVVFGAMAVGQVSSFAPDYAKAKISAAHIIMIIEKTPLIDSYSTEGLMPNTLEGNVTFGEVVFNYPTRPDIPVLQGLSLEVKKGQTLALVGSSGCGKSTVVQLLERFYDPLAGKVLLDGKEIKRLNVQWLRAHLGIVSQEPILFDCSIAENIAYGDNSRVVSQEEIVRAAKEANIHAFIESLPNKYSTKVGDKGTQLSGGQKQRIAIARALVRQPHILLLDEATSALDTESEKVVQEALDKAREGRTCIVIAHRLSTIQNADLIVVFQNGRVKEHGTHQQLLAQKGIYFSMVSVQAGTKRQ

CC(=O)O[C@@]12CO[C@@H]1C[C@H](O)[C@@]1(C)C(=O)[C@H](O)C3=C(C)[C@@H](OC(=O)[C@H](O)[C@@H](NC(=O)OC(C)(C)C)c4ccccc4)C[C@@](O)([C@@H](OC(=O)c4ccccc4)[C@H]21)C3(C)C [DTX, Docetaxel]
percentage of tumor size increase [1]: 55% | percentage of tumor size increase ([2]; TxR tumor xenografts, two weeks after drug administration, PIP 50 mg/kg daily p.o.): 217% | inhibitory effect on the tumor growth in TxR tumor xenografts ([2]; model verification experiment, n = 3): no inhibitory effect | percentage of bodyweights [3]: 79% | DTX plasma concentration [4, 8]: 703.847 ± 311.129 ng/mL | DTX tissue concentration, Brain [4, 8]: 0.022 ± 0.009 ng/mg | DTX tissue concentration, Kidney [4, 8]: 2.322 ± 1.447 ng/mg | DTX tissue concentration, Liver [4, 8]: 1.080 ± 0.763 ng/mg | DTX tissue concentration, Tumor [4, 8]: 1.312 ± 0.754 ng/mg | concentration at 2 h ([4]; brain): 22 ng/g | concentration at 2 h ([4]; kidney): 2320 ng/g | concentration at 2 h ([4]; liver): 1080 ng/g | concentration at 2 h ([4]; lung): 5160 ± 2890 ng/g | concentration at 2 h ([4]; plasma): 704 ng/mL | concentration at 2 h ([4]; tumor): 1310 ng/g | IC50 ([5]; read-out: IC50 of DTX on PC3-TxR, DTX + 5 μg/ml PIP): 17.6 nM | IC50 ([5]; read-out: IC50 of DTX on PC3-TxR, DTX + 10 μg/ml PIP): 10.4 nM | IC50 ([5]; read-out: IC50 of DTX on PC3-TxR, DTX + 25 μg/ml PIP): 5.5 nM | IC50 ([5]; read-out: IC50 of DTX on PC3-TxR, DTX alone): 41.4 nM | cell uptake of DTX ([6]; DTX 1 μM, absence of PIP): 0.35 ± 0.05 nmol/min/mg protein | cell uptake of DTX ([6]; DTX 5 μM, absence of PIP): 2.44 ± 0.14 nmol/min/mg protein | cell uptake of DTX ([6]; DTX 5 μM, after pre-incubation with PIP): 3.57 ± 0.75 nmol/min/mg protein | cell uptake of DTX ([6]; DTX 10 μM, absence of PIP): 3.30 ± 0.38 nmol/min/mg protein | cell uptake of DTX ([6]; DTX 10 μM, after pre-incubation with PIP): 5.20 ± 0.53 nmol/min/mg protein

CC(=O)N1CCN(c2ccc(OCC3COC(Cn4ccnc4)(c4ccc(Cl)cc4Cl)O3)cc2)CC1 (stereo not shown) [Ketoconazole]
reduction of the clearance of DTX [7]: 49%
